Patent US11555012B2 (Nimbus Artemis, Inc., priority 2018, dated 2023)

What was measured:
[1] = target: T1, ACL (Homo sapiens (Human), UniProt P53396); test: ACLY-MDH Coupled Assay
Target sequence in this assay (P53396 whole entry, species assumed): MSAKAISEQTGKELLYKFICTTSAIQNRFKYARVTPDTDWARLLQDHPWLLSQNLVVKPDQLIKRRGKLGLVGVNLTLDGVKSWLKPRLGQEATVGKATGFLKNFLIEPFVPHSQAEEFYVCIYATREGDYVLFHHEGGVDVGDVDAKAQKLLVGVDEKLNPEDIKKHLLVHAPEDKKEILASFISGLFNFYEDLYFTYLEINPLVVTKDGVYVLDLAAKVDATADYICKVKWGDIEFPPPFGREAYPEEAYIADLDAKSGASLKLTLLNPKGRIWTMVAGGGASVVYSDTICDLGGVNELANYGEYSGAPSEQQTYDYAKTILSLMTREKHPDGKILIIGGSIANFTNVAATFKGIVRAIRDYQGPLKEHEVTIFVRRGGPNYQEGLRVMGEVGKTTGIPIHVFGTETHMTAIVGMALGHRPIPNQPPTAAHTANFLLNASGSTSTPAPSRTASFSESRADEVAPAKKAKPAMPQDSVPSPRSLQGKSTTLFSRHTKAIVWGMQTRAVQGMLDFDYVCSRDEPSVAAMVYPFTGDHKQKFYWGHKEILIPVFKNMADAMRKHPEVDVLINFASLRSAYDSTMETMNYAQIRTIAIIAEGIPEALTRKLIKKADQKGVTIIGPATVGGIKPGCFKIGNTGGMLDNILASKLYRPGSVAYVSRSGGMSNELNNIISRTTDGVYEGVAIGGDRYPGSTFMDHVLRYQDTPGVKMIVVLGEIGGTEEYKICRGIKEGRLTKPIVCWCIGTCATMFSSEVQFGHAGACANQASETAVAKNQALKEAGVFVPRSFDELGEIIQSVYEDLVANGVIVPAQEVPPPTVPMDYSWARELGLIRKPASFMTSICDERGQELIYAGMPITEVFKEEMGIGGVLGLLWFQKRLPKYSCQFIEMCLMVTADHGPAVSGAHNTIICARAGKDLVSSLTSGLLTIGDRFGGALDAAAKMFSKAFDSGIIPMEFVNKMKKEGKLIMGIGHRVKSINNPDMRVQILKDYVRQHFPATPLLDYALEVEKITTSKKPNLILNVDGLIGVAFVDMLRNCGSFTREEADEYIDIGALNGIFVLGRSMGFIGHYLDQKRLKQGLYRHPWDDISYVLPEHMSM
Method: Compounds of the present invention were evaluated in an ACLY Coupled Assay.
The assay protocol for the Coupled Assay (below) was followed:
b) Add 1 μL cpds to 96 assay plate, Test cpd conc: 100/30/10 μM top dose, 3 folds dilution, 10+0+control (control: buffer without ACL+DMSO) points, 1000 rpm for 1 min, incubation at 25° C. for 60 min

[2] = target: T1, ACL; test: ADP-Glo Assay
Target sequence in this assay (P53396 other isoform, or with tags, fused parts or gaps isoform P53396-2): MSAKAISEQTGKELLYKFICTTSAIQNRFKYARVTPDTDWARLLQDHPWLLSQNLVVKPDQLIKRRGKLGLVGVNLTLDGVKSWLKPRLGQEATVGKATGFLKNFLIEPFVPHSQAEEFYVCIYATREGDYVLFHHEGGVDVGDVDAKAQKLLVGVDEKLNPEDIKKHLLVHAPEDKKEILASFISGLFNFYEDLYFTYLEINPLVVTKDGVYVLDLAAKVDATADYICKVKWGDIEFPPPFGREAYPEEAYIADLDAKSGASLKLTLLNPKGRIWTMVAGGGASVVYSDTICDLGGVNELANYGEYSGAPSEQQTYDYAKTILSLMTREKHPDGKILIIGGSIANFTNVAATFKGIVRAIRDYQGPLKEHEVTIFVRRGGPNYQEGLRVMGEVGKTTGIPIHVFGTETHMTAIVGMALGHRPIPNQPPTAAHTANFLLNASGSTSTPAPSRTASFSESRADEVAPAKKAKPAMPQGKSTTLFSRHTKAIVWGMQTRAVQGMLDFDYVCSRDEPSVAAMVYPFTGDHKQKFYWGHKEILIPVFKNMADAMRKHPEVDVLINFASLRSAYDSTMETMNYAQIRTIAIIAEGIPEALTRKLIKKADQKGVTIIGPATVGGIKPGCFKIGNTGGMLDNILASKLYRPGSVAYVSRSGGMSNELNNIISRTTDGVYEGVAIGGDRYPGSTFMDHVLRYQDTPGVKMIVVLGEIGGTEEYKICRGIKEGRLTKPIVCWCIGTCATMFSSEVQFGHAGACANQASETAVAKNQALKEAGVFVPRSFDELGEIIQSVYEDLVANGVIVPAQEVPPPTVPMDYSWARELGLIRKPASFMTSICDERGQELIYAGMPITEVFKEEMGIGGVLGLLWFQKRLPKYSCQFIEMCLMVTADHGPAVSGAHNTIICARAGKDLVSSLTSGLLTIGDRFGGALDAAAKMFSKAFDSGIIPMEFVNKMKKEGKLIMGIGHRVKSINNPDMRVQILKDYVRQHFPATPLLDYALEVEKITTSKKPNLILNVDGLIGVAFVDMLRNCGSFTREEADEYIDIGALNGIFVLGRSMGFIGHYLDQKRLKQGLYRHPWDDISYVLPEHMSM

[3] = read-out: ACL-ADP-Glo (IC50), 3 nM ACL, 15 μM ATP, 3 μM CoA, 300 μM Citrate
[4] = read-out: ACL-MDH Coupled Assay (IC50), 8 nM ACL, 60 μM CoA Na2, 85 μM Citrate, 250 μM ATP, 250 μM NADH

Cn1ccnc1-c1cc(Cl)c(O)c(S(=O)(=O)Nc2cc(-c3ccccc3)ccc2O)c1 [I-133, 3-chloro-2-hydroxy-N-(4-hydroxy-[1,1′-biphenyl]-3-yl)-5-(1-methyl-1H-imidazol-2-yl)benzenesulfonamide]
IC50 [1]: 500 to 30000 nM | IC50 [2]: 50 to 500 nM

O=C(O)c1ccc(-c2ccccc2)cc1NS(=O)(=O)c1ccnn1CCc1ccccc1 [I-330]
IC50 [1]: 500 to 30000 nM | IC50 [2]: 500 to 20000 nM

CO[C@@H]1CCN(C(=O)c2cc(Cl)c(O)c(S(=O)(=O)Nc3cc(-c4ccccc4)c(F)cc3F)c2)C1 [I-104, 3-chloro-N-(2,4-difluoro-5-phenylphenyl)-2-hydroxy-5-[[(3R)-3-methoxypyrrolidin-1-yl]carbonyl]benzene-1-sulfonamide]
IC50 [1]: 500 to 30000 nM | IC50 [2]: 50 to 500 nM

O=C(O)c1ccc(-c2cc3ccccc3s2)cc1NS(=O)(=O)c1cc(Cl)cc(Cl)c1 [I-293, 4-(benzo[b]thiophen-2-yl)-2-((3,5-dichlorophenyl)sulfonamido)benzoic acid]
IC50 [1]: 500 to 30000 nM | IC50 [2]: 500 to 20000 nM

CC(C)NC(=O)c1cc(Cl)c(O)c(S(=O)(=O)Nc2cc(-c3ccccc3)c(F)cc2F)c1 [I-93]
IC50 [1]: 50 to 500 nM | IC50 [2, 3]: < 50 nM

O=C(O)c1ncc(-c2ccccc2)cc1NS(=O)(=O)c1cc(Cl)cc(Cl)c1 [I-243, 3-((3,5-dichlorophenyl)sulfonamido)-5-phenylpicolinic Acid]
IC50 [1]: 500 to 30000 nM | IC50 [2]: 500 to 20000 nM

O=C(O)c1occc1NS(=O)(=O)c1cc(Cl)cc(Cl)c1 [I-316, 3-((3,5-dichlorophenyl)sulfonamido)furan-2-carboxylic acid]
IC50 [1]: 500 to 30000 nM | IC50 [2]: 500 to 20000 nM

O=C(c1cc(Cl)c(O)c(S(=O)(=O)Nc2cc(-c3ccccn3)ccc2F)c1)N1CCC1 [I-206, 5-(azetidine-1-carbonyl)-3-chloro-N-[2-fluoro-5-(pyridin-2-yl)phenyl]-2-hydroxybenzene-1-sulfonamide]
IC50 [1]: 50 to 500 nM | IC50 [2]: 50 to 500 nM

O=S(=O)(Nc1cc(Cl)cc(-c2nccs2)c1)c1cc(Cl)cc(Cl)c1O [I-240, 3,5-dichloro-N-(3-chloro-5-(thiazol-2-yl)phenyl)-2-hydroxybenzenesulfonamide]
IC50 [1]: 500 to 30000 nM | IC50 [2]: 500 to 20000 nM

O=C(c1cc(Cl)c(O)c(S(=O)(=O)N(C(=O)C2CC2)c2cc(-c3ccccc3)c(F)cc2F)c1)N1CCC1 [I-229, N-((5-(azetidine-1-carbonyl)-3-chloro-2-hydroxyphenyl)sulfonyl)-N-(4,6-difluoro-[1,1′-biphenyl]-3-yl)cyclopropanecarboxamide]
IC50 [1]: 50 to 500 nM | IC50 [2, 3]: < 50 nM

O=S(=O)(Nc1ccoc1)c1cc(Cl)cc(Cl)c1 [I-368, 3,5-dichloro-N-(furan-3-yl)benzenesulfonamide]
IC50 [1]: > 30000 nM | IC50 [2]: 50 to 500 nM

O=C(O)COc1c(Br)cc(C(=O)N2CCC2)cc1S(=O)(=O)Nc1cc(-c2ccccc2)ccc1F [I-192, 2-(4-(azetidine-1-carbonyl)-2-bromo-6-(N-(4-fluoro-[1,1′-biphenyl]-3-yl)sulfamoyl)phenoxy)acetic Acid]
IC50 [1]: 500 to 30000 nM | IC50 [2]: 500 to 20000 nM

N#Cc1cc(Cl)cc(S(=O)(=O)Nc2cc(-c3ccccc3)ccc2F)c1O [I-29, 5-chloro-3-cyano-N-(2-fluoro-5-phenylphenyl)-2-hydroxybenzene-1-sulfonamide]
IC50 [1]: 500 to 30000 nM | IC50 [2]: 500 to 20000 nM

C[C@]1(O)CCN(C(=O)c2cc(Cl)c(O)c(S(=O)(=O)Nc3cc(-c4ccccc4)c(F)cc3F)c2)C1 [I-149, (S)-3-chloro-N-(4,6-difluoro-[1,1′-biphenyl]-3-yl)-2-hydroxy-5-(3-hydroxy-3-methylpyrrolidine-1-carbonyl)benzenesulfonamide]
IC50 [1]: 50 to 500 nM | IC50 [2, 3]: < 50 nM

O=C(O)c1ccc(-c2ccccc2)cc1NS(=O)(=O)c1ccccc1-c1ccno1 [I-336]
IC50 [1]: 500 to 30000 nM | IC50 [2]: 500 to 20000 nM

N#Cc1cc(Cl)cc(S(=O)(=O)Nc2cc(-c3cc4ccccc4s3)c(F)cc2F)c1 [I-203, N-(5-(benzo[b]thiophen-2-yl)-2,4-difluorophenyl)-3-chloro-5-cyanobenzenesulfonamide]
IC50 [1]: > 30000 nM | IC50 [2]: 500 to 20000 nM

COc1ccc(-c2ccccc2)cc1NS(=O)(=O)c1cc(C(=O)O)cc(Cl)c1O [I-2, 3-chloro-4-hydroxy-5-(N-(4-methoxy-[1,1′-biphenyl]-3-yl)sulfamoyl)benzoic Acid]
IC50 [1]: 500 to 30000 nM | IC50 [2]: 500 to 20000 nM

O=S(=O)(Nc1cc(-c2ccccc2)ccc1OC(F)(F)F)c1cc(Cl)cc(Cl)c1O [I-509, 3,5-dichloro-2-hydroxy-N-(4-(trifluoromethoxy)-[1,1′-biphenyl]-3-yl)benzenesulfonamide]
IC50 [1]: 50 to 500 nM | IC50 [2]: 50 to 500 nM

CCOC(=O)c1cc(Cl)c(O)c(S(=O)(=O)Nc2cc(-c3cc4ccccc4s3)c(F)cc2F)c1 [I-505, ethyl 3-(N-(5-(benzo[b]thiophen-2-yl)-2,4-difluorophenyl)sulfamoyl)-5-chloro-4-hydroxybenzoate]
IC50 [1, 4]: < 50 nM | IC50 [2, 3]: < 50 nM

O=S(=O)(Nc1cc(-c2ccccc2)ccn1)c1cc(Cl)cc(Br)c1O [I-32]
IC50 [1]: 500 to 30000 nM | IC50 [2]: 500 to 20000 nM

O=C(c1cc(Cl)c(O)c(S(=O)(=O)Nc2cc(-c3ccccc3)c(F)cc2F)c1)N1CC(F)C1 [I-130, 3-chloro-N-(4,6-difluoro-[1,1′-biphenyl]-3-yl)-5-(3-fluoroazetidine-1-carbonyl)-2-hydroxybenzenesulfonamide]
IC50 [1, 4]: < 50 nM | IC50 [2, 3]: < 50 nM

O=C(O)c1sc(-c2ccc(Cl)cc2)cc1NS(=O)(=O)c1cc(Cl)cc(Cl)c1 [I-322, 5-(4-chlorophenyl)-3-((3,5-dichlorophenyl)sulfonamido)thiophene-2-carboxylic acid]
IC50 [1]: 500 to 30000 nM | IC50 [2]: 500 to 20000 nM

COc1c(Cl)cc(C(=O)O)cc1S(=O)(=O)Nc1cc(-c2ccccc2)c(F)cc1F [I-62, 3-chloro-5-[(2,4-difluoro-5-phenylphenyl)sulfamoyl]-4-methoxybenzoic Acid]
IC50 [1]: 500 to 30000 nM | IC50 [2]: 500 to 20000 nM

COc1ccc(-c2ccccc2)cc1NS(=O)(=O)c1cc(C(=O)NCCN)cc(Cl)c1O [I-64, N-(2-aminoethyl)-3-chloro-4-hydroxy-5-[(2-methoxy-5-phenylphenyl)sulfamoyl]benzamide]
IC50 [1]: 500 to 30000 nM | IC50 [2]: 500 to 20000 nM

O=C(O)c1ccc(-c2ccccc2)cc1NS(=O)(=O)c1c(Cl)nc2sccn12 [I-332]
IC50 [1]: 500 to 30000 nM | IC50 [2]: 500 to 20000 nM

COc1ccc(-c2ccccc2)cc1NS(=O)(=O)c1cc(C#N)cc(Cl)c1O [I-58, 3-chloro-5-cyano-2-hydroxy-N-(2-methoxy-5-phenylphenyl)benzene-1-sulfonamide]
IC50 [1]: 50 to 500 nM | IC50 [2]: 50 to 500 nM

O=C(O)c1ccc(-c2ccccc2)cc1NS(=O)(=O)N1CCC2(CCCCC2)CC1 [I-340]
IC50 [1]: 500 to 30000 nM | IC50 [2]: 500 to 20000 nM

CNC(=O)c1cc(Cl)c(O)c(S(=O)(=O)Nc2cc(-c3ccccc3)c(F)cc2F)c1 [I-92, 3-chloro-5-[(2,4-difluoro-5-phenylphenyl)sulfamoyl]-4-hydroxy-N-methylbenzamide]
IC50 [1]: 50 to 500 nM | IC50 [2]: 50 to 500 nM

O=C(c1cc(Cl)c(O)c(S(=O)(=O)Nc2cc(-c3ccccc3)c(F)cc2F)c1)N1CCOCC1 [I-99, 3-chloro-N-(4,6-difluoro-[1,1′-biphenyl]-3-yl)-2-hydroxy-5-(morpholine-4-carbonyl)benzenesulfonamide]
IC50 [1]: 500 to 30000 nM | IC50 [2]: 500 to 20000 nM

O=C(O)c1cc(NC(=O)c2cccc3ncccc23)ccc1Cl [I-531, 2-chloro-5-(quinoline-5-carboxamido)benzoic acid]
IC50 [2]: > 20000 nM

CC(=O)NCCNC(=O)c1cc(Cl)c(O)c(S(=O)(=O)Nc2cc(-c3ccccc3)c(F)cc2F)c1 [I-161, N-(2-[[3-chloro-5-([4,6-difluoro-[1,1-biphenyl]-3-yl]sulfamoyl)-4-hydroxyphenyl]formamido]ethyl)acetamide]
IC50 [2]: 500 to 20000 nM

CC(C)NC(=O)c1ccc(NS(=O)(=O)c2cc(Cl)cc(Cl)c2O)cc1 [I-178]
IC50 [2]: 500 to 20000 nM

O=S(=O)(Nc1cc(-c2ccccc2)c(F)cc1F)c1cccc2nsnc12 [I-390, N-(4,6-difluoro-[1,1 biphenyl]-3-yl)benzo[c][1,2,5]thiadiazole-4-sulfonamide]
IC50 [2]: > 20000 nM

O=S(=O)(Nc1cc(-n2nnnc2C2CC2)ccc1F)c1cc(Cl)cc(Cl)c1O [I-164]
IC50 [2]: 500 to 20000 nM

COc1ccc(-c2ccccc2)cc1NS(=O)(=O)c1cc(Cl)cc(Cl)c1 [I-405, 3,5-dichloro-N-(4-methoxy-[1,1′-biphenyl]-3-yl)benzenesulfonamide]
IC50 [2]: > 20000 nM

O=S(=O)(Nc1sccc1-c1ccccc1)c1cc(Cl)cc(Cl)c1O [I-89, 3,5-dichloro-2-hydroxy-N-(3-phenylthiophen-2-yl) benzenesulfonamide]
IC50 [2]: 500 to 20000 nM

O=C(c1cc(Cl)cc(S(=O)(=O)Nc2cc(-c3ccccc3)c(F)cc2F)c1)N1CCC1 [I-386, 3-(azetidine-1-carbonyl)-5-chloro-N-(4,6-difluoro-[1,1′-biphenyl]-3-yl)benzenesulfonamide]
IC50 [2]: > 20000 nM

NC(=O)COc1c(Cl)cc(Cl)cc1C(=O)Nc1cc(-c2ccccc2)ccc1C(=O)O [I-320, 3-(2-(2-amino-2-oxoethoxy)-3,5-dichlorobenzamido)-[1,1′-biphenyl]-4-carboxylic Acid]
IC50 [2]: 500 to 20000 nM

O=C(O)CCCOc1ccc(-c2ccccc2)cc1NS(=O)(=O)c1cc(Cl)cc(Cl)c1 [I-291, 4-[[3-(3,5-dichlorobenzenesulfonamido)-[1,1-biphenyl]-4-yl]oxy]butanoic Acid]
IC50 [2]: 500 to 20000 nM

COc1ccc(-c2ccccc2)cc1N(C)S(=O)(=O)c1cc(C(=O)O)cc(Cl)c1O [I-426, 3-chloro-4-hydroxy-5-[(2-methoxy-5-phenylphenyl)(methyl)sulfamoyl]benzoic acid]
IC50 [2]: > 20000 nM

O=S(=O)(Nc1cc(F)ccc1F)c1cc(Cl)cc(Cl)c1O [I-69, 3,5-dichloro-N-(2,5-difluorophenyl)-2-hydroxybenzene-1-sulfonamide]
IC50 [2]: 500 to 20000 nM
